Data from PMC6456411 (Angewandte Chemie (International ed. in English), 2019).
Like-named read-outs stand apart in the source and are kept apart here.

Assays:
[1] = test system: co-culture of HS-5 and Saos-2 cells, 2D cell sheets; experiment: Cytotoxicity of chemotherapy drugs on co-cultured 2D cell sheets; assay type: cell-based; conditions: co-culture 2D cell sheets, 24 h; for cell toxicity: within the tested concentrations
[2] = test system: Saos-2 cells in 3D culture; experiment: Cytotoxicity of chemotherapy drugs on 3D cell spheroids of Saos-2; assay type: cell-based
[3] = test system: co-culture of HS-5 and Saos-2 cells, 3D cell spheroids; experiment: Cytotoxicity of chemotherapy drugs on co-cultured 3D spheroids; assay type: cell-based; conditions: co-culture 3D cell spheroids, 24 h; for cell toxicity: within the tested concentrations
Saos-2 cells = experiment: Cytotoxicity of chemotherapy drugs on 2D cell culture of Saos-2
[4] = test system: co-culture of HS-5 and Saos-2 cells; experiment: Spheroid formation and live-dead assay in co-culture of HS-5 and Saos-2 cells; assay type: cell-based; conditions: treated for 48 h; 1P:2 300 μM, ratio 1:1
[5] = Homo sapiens, SAOS-2, 48 h, read-out: IC50 against Saos-2 cells

N.N.[Cl][Pt][Cl] [cisplatin]
cell killing ([1]; 50 nM): kills about half of cells
cell toxicity [1]: dosage dependent cell toxicity
IC50 ([2]; read-out: IC50 against Saos-2 cells, 3D culture, 48 h): 33.3 µM
IC50 ([2]; read-out: increase of IC50 in 3D culture, Saos-2 cells, 48 h, 3D versus 2D): 12 µM
cell death ([3]; 50 nM): hardly causes cell death
cell toxicity [3]: little toxicity

CC(=O)O[C@H]1C(=O)[C@@]2(C)[C@H]([C@H](OC(=O)c3ccccc3)[C@]3(O)C[C@H](OC(=O)[C@H](O)[C@@H](NC(=O)c4ccccc4)c4ccccc4)C(C)=C1C3(C)C)[C@]1(OC(C)=O)CO[C@@H]1C[C@@H]2O [taxol]
cell viability (Saos-2 cells; Saos-2 2D sheet, 40 nM, 48 h): 60.84%
cell viability ([2]; Saos-2 3D spheroids, 40 nM, 48 h): 94.25%

CN[C@H](CC(C)C)C(=O)N[C@H]1C(=O)N[C@@H](CC(N)=O)C(=O)N[C@H]2C(=O)N[C@H]3C(=O)N[C@H](C(=O)N[C@H](C(=O)O)c4cc(O)cc(O)c4-c4cc3ccc4O)[C@H](O)c3ccc(c(Cl)c3)Oc3cc2cc(c3O[C@@H]2O[C@H](CO)[C@@H](O)[C@H](O)[C@H]2O[C@H]2C[C@](C)(N)[C@H](O)[C@H](C)O2)Oc2ccc(cc2Cl)[C@H]1O [compound 2, vancomycin]
morphology of co-cultured HS-5 and Saos-2 cells [4]: remain a 2D cell sheet
influence on cytotoxicity of chemotherapy drugs against Saos-2 cells (Saos-2 cells; co-incubating with chemotherapy drugs): hardly influence their cytotoxicity

COc1cccc2c1C(=O)c1c(O)c3c(c(O)c1C2=O)C[C@@](O)(C(=O)CO)C[C@@H]3O[C@H]1C[C@H](N)[C@H](O)[C@H](C)O1 [Dox, doxorubicin]
cell killing ([1]; 5 μM): kills about half of cells
cell toxicity [1]: dosage dependent cell toxicity
IC50 (Saos-2 cells; [5]): 1.4 µM
IC50 [2, 5]: > 6 µM
increase of IC50 in 3D culture than 2D culture ([2]; Saos-2 cells, 48 h): more than 3 times
cell death ([3]; 5 μM): hardly causes cell death
cell toxicity [3]: little toxicity
